Assays:
[1] = system: mouse collagen-induced arthritis model; assay: Therapeutic efficacy in a mouse collagen-induced arthritis model (clinical score); assay type: in vivo; details: mean of group, total score 0-12, oral, Methotrexate 0.25 mg/kg once a week, Tofacitinib 5 mg/kg once a day, X8 1 mg/kg once a day
From the text: Example of Effect 2: Evaluation of the Therapeutic Efficacy of X8 Compound in a Mouse Collagen-Induced Arthritis Model
(§1) Sixty male DBA/1J mice (9-10 weeks old, H-2q haplotype) were acclimatized in a standard animal room for one week and then randomly divided into 5 groups. Except for the healthy control group, the rest were inoculated with collagen antigen injection, and then received oral treatment with different compounds. The brief procedure was to mix bovine type II collagen (purchased from Chondrex, 20021) with an equal volume of Freund's complete adjuvant (purchased from Sigma, F5881), the concentration was 4 mg/ml, and it was treated with a homogenizer at a speed of 20,000 revolutions/min for 5-10 minutes. A needle was inserted between the left side of the dorsal caudal artery and the lateral vein of the mouse, and 50 microliters of modeling agent was injected subcutaneously. 21 days after the first injection, another injection was injected between the right side of the dorsal tail artery and the lateral vein of the mouse. After the first injection, oral administration was started. The drug was formulated with […] PEG300, and it was prepared for immediate use. […] The total score was between 0-12 points, and the swelling of the foot after vaccination was not calculated.

[2] = Body weight of animals in the mouse collagen-induced arthritis model; assay type: in vivo; details: oral, X8 1 mg/kg once a day; for body weight of animals, Mean/g: mean of group, Methotrexate 0.25 mg/kg once a week, Tofacitinib 5 mg/kg once a day
From the text: as §1

With `CN(Cc1cnc2nc(N)nc(N)c2n1)c1ccc(C(=O)N[C@@H](CCC(=O)O)C(=O)O)cc1` [Methotrexate, methotrexate] the “clinical score of arthritis, Mean (the larger the value, the more severe the disease)” value (shortened to “clinical score of arthritis, Mean”) ([1]; day 0) was 0.00, the “clinical score of arthritis, Mean” value ([1]; day 21) was 0.00 and the “clinical score of arthritis, Mean” value ([1]; day 25) was 0.00. For the same compound, the “clinical score of arthritis, Mean” value ([1]; day 28) was 0.40, the “clinical score of arthritis, Mean” value ([1]; day 31) was 1.32 and the “clinical score of arthritis, Mean” value ([1]; day 33) was 1.55. The “clinical score of arthritis, Mean” value ([1]; day 35) was 2.05, the “clinical score of arthritis, Mean” value ([1]; day 38) was 2.41 and the “clinical score of arthritis, Mean” value ([1]; day 40) was 2.60. For the same compound, the “clinical score of arthritis, Mean” value ([1]; day 42) was 3.66, the “clinical score of arthritis, Mean” value ([1]; day 45) was 4.61 and the “body weight of animals, Mean/g” value ([2]; day 0) was 21.92 g. For the same compound, the “body weight of animals, Mean/g” value ([2]; day 4) was 22.30 g, the “body weight of animals, Mean/g” value ([2]; day 7) was 22.91 g and the “body weight of animals, Mean/g” value ([2]; day 11) was 23.33 g. The “body weight of animals, Mean/g” value ([2]; day 14) was 21.72 g, the “body weight of animals, Mean/g” value ([2]; day 18) was 23.92 g and the “body weight of animals, Mean/g” value ([2]; day 20) was 24.09 g. The “body weight of animals, Mean/g” value ([2]; day 25) was 23.64 g, the “body weight of animals, Mean/g” value ([2]; day 28) was 23.48 g and the “body weight of animals, Mean/g” value ([2]; day 31) was 23.12 g. The “body weight of animals, Mean/g” value ([2]; day 33) was 23.00 g, the “body weight of animals, Mean/g” value ([2]; day 35) was 22.08 g and the “body weight of animals, Mean/g” value ([2]; day 38) was 22.86 g. The “body weight of animals, Mean/g” value ([2]; day 40) was 22.70 g, the “body weight of animals, Mean/g” value ([2]; day 42) was 22.45 g and the “body weight of animals, Mean/g” value ([2]; day 45) was 22.30 g. The “effect on body weight of animals (in words)” value ([2]; whole experiment, days 0-45, methotrexate 0.25 mg/kg once a week, tofacitinib 5 mg/kg once a day) was “two sudden drops”.
